# Test results taken from PubChem BioAssay AID1963838 (Molecular Pharmacology Branch, DTP, NCI, 2024).
# Several values for one entry are separate records, joined by “and”; a condition that tells them apart may be missing. Equal entries are not always repeated.
# System: 855422-203-R-J1-PDC complex spheroid viability
# Assay: Anticancer human tumor 855422-203-R-J1-PDC patient-derived bladder carcinoma cell line growth inhibition [POLQ]
# Details: for viability, T/C: stronger effect = lower value
# Experimental: Multicellular complex tumor spheroid response to Polymerase (POL) inhibitors (novobiocin, ART-558, RP6685) in combination with a variety of drugs and investigational agents in selected tumor cell lines
# The POL inhibitors (novobiocin, ART-558, and RP6685) were evaluated both individually and in combination with standard of care and investigational anticancer small molecules within a complex spheroid model of solid tumors. . Complex spheroids include a stromal component modeled by human endothelial cells (HUVEC) and fibroblasts modeled by human mesenchymal stem cells (MSCs). The concentration ranges selected for each drug and investigational agent were based upon clinically achievable concentrations if the clinical Cmax of the agent was known.
# Compounds. The drugs and investigational agents: novobiocin (NSC847541), ART-558 (NSC835418), RP-6685 (NSC848927), peposertib (NSC802822), ceralasertib (NSC780249), elimusertib (NSC800525), camonsertib (NSC841442), AZD-1390 (NSC803789), olaparib (NSC753686), talazoparib (NSC767125), rucaparib (NSC756644), sotorasib (NSC818433), MRTX-1133 (NSC836407), SN-38 (NSC673596), topotecan (NSC609699), epotoside (NSC141540), doxorubicin (NSC123127), gemcitabine (NSC613327), 5-fluorouracil (NSC19893), paclitaxel (NSC125973), vemurafenib (NSC761431), MSA-2 (NSC828583), SN-011 (NSC837082), adavosertib (NSC754352), prexasertib (NSC758257), carboplatin (NSC241240) and oxaliplatin (NSC266046), were obtained from the National Cancer Institute (NCI) Developmental Therapeutics Program Chemical Repository (21). The FDA-approved anticancer drug set is available from the Developmental Therapeutics Program at https://dtp.cancer.gov/organization/dscb/obtaining/. […] The stock solutions were prepared in dimethyl sulfoxide (DMSO, Sigma-Aldrich, St. Louis, MO, cat. D2650), except for the platinum compounds which were prepared in saline (Quality Biological, Gaithersburg, MD, cat. 114-055-101), at 800-fold the tested concentration and stored at -70 degrees C prior to their use. All drugs and investigational agents were tested over a range starting from a high concentration at or near the clinical Cmax and decreasing in half-log increments. If the clinical Cmax for an agent had not been determined, the highest concentration tested was 10 microM, except for SN-38, which was tested at a high concentration of 1 microM.
# Cell Culture. All cells were maintained in an incubator at 37 degrees C and 5% CO2 with 95% humidity. The PDC lines were cultured according to standard operating procedures established by the NCI PDMR (https://pdmr.cancer.gov). Table 3 of the manuscript, lists the cell lines along with the number of the three cell types plated to form the mct-spheroids and media for tumor cell growth. After thawing, all PDC lines, except 997537-175-T-J1-PDC and 415267-285-R-J2-PDC, were cultured in Matrigel-coated flasks prepared with a working solution of 1X Ham's F-12 nutrient mix, without supplementation (Thermo Fisher Scientific, cat. 11765054), 100 U/mL penicillin-streptomycin (Thermo Fisher Scientific, cat. 15140122), and 2.5% Matrigel (Corning Inc., Corning, NY, cat. 354248) for the first three passages. The two PDC lines 997537-175-T-J1-PDC and 415267-285-R-J2-PDC were cultured on uncoated flasks. The 857933-349-R-J2-PDC line was cultured in 6C/Colon 1B media containing advanced DMEM/F-12 (Thermo Fisher Scientific, cat. 12634028), 10 mM HEPES (Thermo Fisher Scientific, cat. 15630080), 1X GlutaMAX supplement (Thermo Fisher Scientific, cat. 35050061), 0.1 mg/mL primocin (InvivoGen, San Diego, CA, cat. ant-pm-2), 10% defined fetal bovine serum, heat inactivated (HyClone Laboratories Inc., Logan, UT, cat. SH30070.03HI), 50% L-WRN conditioned media (ATCC, cat. CRL-3276), 1.25 mM N-Acetyl-L-cysteine (Sigma-Aldrich, cat. A9165), 10 mM nicotinamide (Sigma-Aldrich, cat. N0636), 1X B-27 supplement (Thermo Fisher Scientific, cat. 17504044), 1X N-2 supplement (Thermo Fisher Scientific, cat. […]
# [1] = curve of first compound, second compound 0.0316 µM
# [2] = curve of first compound, second compound 0.1 µM
# [3] = curve of first compound, second compound 0.316 µM
# [4] = curve of first compound, second compound 1 µM
# [5] = curve of first compound, second compound 3.16 µM
# [6] = curve of first compound, second compound 10 µM
# [7] = second compound 0.0316 µM, first compound 0.0316 µM
# [8] = second compound 0.0316 µM, first compound 0.1 µM
# [9] = second compound 0.0316 µM, first compound 0.316 µM
# [10] = second compound 0.0316 µM, first compound 1 µM
# [11] = second compound 0.1 µM, first compound 0.0316 µM
# [12] = second compound 0.1 µM, first compound 0.1 µM
# [13] = second compound 0.1 µM, first compound 0.316 µM
# [14] = second compound 0.1 µM, first compound 1 µM
# [15] = second compound 0.316 µM, first compound 0.0316 µM
# [16] = second compound 0.316 µM, first compound 0.1 µM
# [17] = second compound 0.316 µM, first compound 0.316 µM
# [18] = second compound 0.316 µM, first compound 1 µM
# [19] = second compound 1 µM, first compound 0.0316 µM
# [20] = second compound 1 µM, first compound 0.1 µM
# [21] = second compound 1 µM, first compound 0.316 µM
# [22] = second compound 1 µM, first compound 1 µM
# [23] = second compound 3.16 µM, first compound 0.0316 µM
# [24] = second compound 3.16 µM, first compound 0.1 µM
# [25] = second compound 3.16 µM, first compound 0.316 µM
# [26] = second compound 3.16 µM, first compound 1 µM
# [27] = second compound 10 µM, first compound 0.0316 µM
# [28] = second compound 10 µM, first compound 0.1 µM
# [29] = second compound 10 µM, first compound 0.316 µM
# [30] = second compound 10 µM, first compound 1 µM
# 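Further: spheroids exposed to compounds for seven days before readout.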
smiles,measurement,setting,value
COc1cccc(OCCCN)c1-c1cc(Nc2cnc(C#N)cn2)n[nH]1 + COC1C(OC(N)=O)C(O)C(Oc2ccc3c(O)c(NC(=O)c4ccc(O)c(CC=C(C)C)c4)c(=O)oc3c2C)OC1(C)C,IC50,[1],19.4 nM
same,IC50,[2],16 nM
same,IC50,[3],20 nM
same,IC50,[4],16 nM
same,IC50,[5],16.1 nM
same,IC50,[6],16 nM
same,"viability, T/C","second compound 0.0316 µM, first compound 0.00316 µM",98.3%
same,"viability, T/C","second compound 0.0316 µM, first compound 0.01 µM",90%
same,"viability, T/C",[7],20.3%
same,"viability, T/C",[8],8.97%
same,"viability, T/C",[9],6.7%
same,"viability, T/C",[10],6.14%
same,"viability, T/C","second compound 0.1 µM, first compound 0.00316 µM",102%
same,"viability, T/C","second compound 0.1 µM, first compound 0.01 µM",69%
same,"viability, T/C",[11],22.4%
same,"viability, T/C",[12],8.69%
same,"viability, T/C",[13],5.66%
same,"viability, T/C",[14],4.71%
same,"viability, T/C","second compound 0.316 µM, first compound 0.00316 µM",109%
same,"viability, T/C","second compound 0.316 µM, first compound 0.01 µM",101%
same,"viability, T/C",[15],16.4%
same,"viability, T/C",[16],7.64%
same,"viability, T/C",[17],6.06%
same,"viability, T/C",[18],5.18%
same,"viability, T/C","second compound 1 µM, first compound 0.00316 µM",118%
same,"viability, T/C","second compound 1 µM, first compound 0.01 µM",75.1%
same,"viability, T/C",[19],13.6%
same,"viability, T/C",[20],6.95%
same,"viability, T/C",[21],5.24%
same,"viability, T/C",[22],5.12%
same,"viability, T/C","second compound 3.16 µM, first compound 0.00316 µM",109%
same,"viability, T/C","second compound 3.16 µM, first compound 0.01 µM",74.9%
same,"viability, T/C",[23],14.5%
same,"viability, T/C",[24],7.77%
same,"viability, T/C",[25],5.93%
same,"viability, T/C",[26],8.32%
same,"viability, T/C","second compound 10 µM, first compound 0.00316 µM",107%
same,"viability, T/C","second compound 10 µM, first compound 0.01 µM",74.2%
same,"viability, T/C",[27],15%
same,"viability, T/C",[28],8.46%
same,"viability, T/C",[29],7.19%
same,"viability, T/C",[30],4.54%
COc1cccc2c1C(=O)c1c(O)c3c(c(O)c1C2=O)CC(O)(C(=O)CO)CC3OC1CC(N)C(O)C(C)O1 (stereo unspecified) + Cc1cccc(N(C)C(=O)C2C(O)CCN2c2nc(C)cc(C(F)(F)F)c2C#N)c1,IC50,[1],< 31.6 nM
same,IC50,[2],< 31.6 nM
same,IC50,[3],< 31.6 nM
same,IC50,[4],< 31.6 nM
same,IC50,[5],< 31.6 nM
same,IC50,[6],< 31.6 nM
same,"viability, T/C",[7],16.1%
same,"viability, T/C",[8],10.2%
same,"viability, T/C",[9],2.55%
same,"viability, T/C",[10],0.3%
same,"viability, T/C","second compound 0.0316 µM, first compound 3.16 µM",0.66%
same,"viability, T/C","second compound 0.0316 µM, first compound 10 µM",2.13%
same,"viability, T/C",[11],15.8%
same,"viability, T/C",[12],10.1%
same,"viability, T/C",[13],2.47%
same,"viability, T/C",[14],0.26%
same,"viability, T/C","second compound 0.1 µM, first compound 3.16 µM",0.48%
same,"viability, T/C","second compound 0.1 µM, first compound 10 µM",2.11%
same,"viability, T/C",[15],16.4%
same,"viability, T/C",[16],9.49%
same,"viability, T/C",[17],3.59%
same,"viability, T/C",[18],0.33%
same,"viability, T/C","second compound 0.316 µM, first compound 3.16 µM",0.43%
same,"viability, T/C","second compound 0.316 µM, first compound 10 µM",1.8%
same,"viability, T/C",[19],14.4%
same,"viability, T/C",[20],9.02%
same,"viability, T/C",[21],2.18%
same,"viability, T/C",[22],0.24%
same,"viability, T/C","second compound 1 µM, first compound 3.16 µM",0.8%
same,"viability, T/C","second compound 1 µM, first compound 10 µM",1.14%
same,"viability, T/C",[23],14.1%
same,"viability, T/C",[24],8.42%
same,"viability, T/C",[25],2.03%
same,"viability, T/C",[26],0.25%
same,"viability, T/C","second compound 3.16 µM, first compound 3.16 µM",0.6%
same,"viability, T/C","second compound 3.16 µM, first compound 10 µM",2.24%
same,"viability, T/C",[27],13.5%
same,"viability, T/C",[28],9.55%
same,"viability, T/C",[29],1.76%
same,"viability, T/C",[30],0.25%
same,"viability, T/C","second compound 10 µM, first compound 3.16 µM",0.59%
same,"viability, T/C","second compound 10 µM, first compound 10 µM",1.9%
COc1cc2cc(C(=O)CCC(=O)O)sc2cc1OC,"viability, T/C",compound 0.0316 µM,93.5% and 102% and 106%
same,"viability, T/C",compound 0.1 µM,128% and 88.2% and 104%
same,"viability, T/C",compound 0.316 µM,98.3% and 108% and 107%
same,"viability, T/C",compound 1 µM,97.8% and 87.2% and 98.9%
same,"viability, T/C",compound 3.16 µM,111% (2×) and 106%
same,"viability, T/C",compound 10 µM,112% and 119% and 102%
same,IC50,curve of compound,> 10000 nM
